Tested on: H4IIE cells
Experiment: Cellular bioassay of hepatic glucose production (gluconeogenesis) induced by sodium pyruvate and lactate (SLP)
Type: cell-based
Conditions: for glucose production relative to SLP condition (100%): 6 h incubation
Experimental: A cellular bioassay was established according to a method described by Okamoto et al. (Establishment and characterization of a novel method for evaluating gluconeogenesis using hepatic cell lines, H4IIE and HepG2, Archives of Biochemistry and Biophysics, Volume 491, Issues 1-2, November 2009, Pages 46-52; Takashi Okamoto, Naohide Kanemoto, Takashi Ban, Toshiki Sudo, Keisuke Nagano, Ichiro Niki.) (FIG. 1). Briefly, H4IIE cells pre-cultured at high density were seeded into a 12-well plate at a density of 5.714×10^5 cells/cm^2 and cultured for 24 h in EMEM supplemented with 10% FCS. […] The assay was started by switching the medium for KHH Buffer in the presence of gluconeogenesis-inducing substrates (1 mM sodium pyruvate and 10 mM lactate). Compounds were added at different concentrations and tested in duplicate. 10 mM of metformin was included as a positive control for inhibition of gluconeogenesis. The conditioned medium was collected after 6 h of incubation (stored at −80° C.). The cells remaining in the wells are washed once with PBS and then stored dry at −20° C.). The medium is used to assay glucose content using a fluorometric glucose assay kit. Frozen cells' proteins are first extracted and then quantified, to normalize the glucose results. Components were tested in at least two independent experiments performed at different cell passages. The selected compounds (Histidine and Ferulic acid) were tested individually to assess their inhibitory effect on hepatic glucose production (Table 1) using a range of concentrations determined from previous internal knowledge and literature. Additional experiments on individual compounds were conducted: the amino acid arginine and leucine to test the specificity of histidine effects against other amino acids. In addition, interactions and synergies between compounds were further explored using combined formulations, for which detailed information is provided in Table 1. For data analysis described herein, results are expressed as relative glucose produced in every treatment compared to the glucose produced using SLP treatment. […] Independent experiments were performed, using different cells passages in each condition. […] Sodium Pyruvate (1 mM) and Sodium Lactate (10 mM) was used to induce gluconeogenesis in H4IIE cells.

CC(C)C[C@H](N)C(=O)O [Leucine, leucine, reference compound]
glucose production relative to SLP condition (100%) (single compound at 0.2 mM): 84.69%±1.05
glucose production relative to SLP condition (100%) (single compound at 2 mM): 75.37%±0.36
glucose production relative to SLP condition (100%) (single compound at 20 mM): 83.76%±7.30

COc1cc(/C=C/C(=O)O)ccc1O [Ferulic acid, ferulic acid]
inhibition on doubling the dose (dose doubled from 0.5 μM to 1 μM): 30%
inhibiting effect of doubling the dose (dose doubled from 1 μM to 2 μM): 40%
inhibition on doubling the dose (dose doubled from 2 μM to 4 μM): 32%
glucose production relative to SLP condition (100%) (single compound at 0.5 μM): 85.67%±3.81
glucose production relative to SLP condition (100%) (single compound at 0.8 μM): 81.51%±11.70
glucose production relative to SLP condition (100%) (single compound at 1 μM): 61.38%±15.82
glucose production relative to SLP condition (100%) (single compound at 2 μM): 36.57%±6.02
glucose production relative to SLP condition (100%) (single compound at 4 μM): 25.08%±5.03

N[C@@H](Cc1c[nH]cn1)C(=O)O [histidine]
inhibiting effect of doubling the dose (dose doubled from 0.5 mM to 1 mM): 52%
inhibiting effect of doubling the dose (dose doubled from 1 mM to 2 mM): 25%
glucose production relative to SLP condition (100%) (single compound at 0.2 mM): 93.7%±10.85
glucose production relative to SLP condition (100%) (single compound at 0.5 mM): 87.00%±17.2
glucose production relative to SLP condition (100%) (single compound at 1 mM): 52.67%±4.16
glucose production relative to SLP condition (100%) (single compound at 2 mM): 39.19%±7.44
glucose production relative to SLP condition (100%) (single compound at 20 mM): 8.39%±2.49

CN(C)C(=N)N=C(N)N [metformin, reference compound]
glucose production relative to SLP condition (100%) (10 mM, positive control): 9.71%±4.2

N=C(N)NCCC[C@H](N)C(=O)O [Arginine, arginine, reference compound]
glucose production relative to SLP condition (100%) (single compound at 0.2 mM): 81.44%±2.72
glucose production relative to SLP condition (100%) (single compound at 2 mM): 65.01%±11.52
glucose production relative to SLP condition (100%) (single compound at 20 mM): 45.40%±3.57

From US11896581B2, “Compositions and methods for providing health benefits in an animal” (Société des Produits Nestlé S.A., priority 2020, dated 2024)
